Laboratory results from ChEMBL document CHEMBL1201862, “PubChem BioAssay data set” (2004).
Each block holds one compound with its values, some of them ahead of it. The source made the active and inactive calls.

Tests used:
[1] = system: HeLa; assay: viability loss in HeLa cells – cell-based, ATP luminescence, cherry-pick samples, cytotoxicity control, dose response (AID 687004); type: functional; conditions: Homo sapiens
[2] = molecular target: Beta-galactosidase (Escherichia coli, UniProt Q8VNN2); assay: Dose response counterscreen for EBI2 assay utilizing the enzyme, b-galactosidase.; type: functional
[3] = molecular target: Kallikrein-7 (Homo sapiens, UniProt P49862); assay: Fluorescence Intensity-based biochemical primary high throughput dose response assay to identify activators of kallikrein-7 (K7) zymogen.
[4] = cells; type: functional, cell-based
[5] = molecular target: T1, Trace amine-associated receptor 1 (Homo sapiens, UniProt Q96RJ0); assay: Fluorescence-based cell-based high throughput dose response assay to identify agonists of the human trace amine associated receptor 1 (TAAR1).; type: functional
T1 sequence (Q96RJ0 whole entry): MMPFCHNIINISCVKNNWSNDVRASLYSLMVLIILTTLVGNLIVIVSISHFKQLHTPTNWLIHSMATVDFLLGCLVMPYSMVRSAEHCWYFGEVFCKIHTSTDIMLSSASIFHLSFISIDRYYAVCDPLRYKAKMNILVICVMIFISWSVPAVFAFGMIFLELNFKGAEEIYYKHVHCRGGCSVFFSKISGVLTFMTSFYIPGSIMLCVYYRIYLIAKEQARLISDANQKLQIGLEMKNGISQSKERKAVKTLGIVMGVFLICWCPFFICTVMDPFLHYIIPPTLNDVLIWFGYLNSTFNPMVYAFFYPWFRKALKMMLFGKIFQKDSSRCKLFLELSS

[6] = molecular target: T1, Trace amine-associated receptor 1; assay: Counterscreen for agonists of the human trace amine associated receptor 1 (hTAAR1): Fluorescence-based cell-based high throughput dose response assay to identify hTAAR1 agonist that also desensitize TAAR1 receptor response.; type: functional
[7] = cells; type: functional, cell-based; remark: listed apart in the source
[8] = NIH-3T3 fibroblast cytotoxicity, dose response, cytotoxicity control, cell-based, fluorescence, Alamar Blue, secondary assay (AID 2327); type: functional;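 also: NIH-3T3 mouse fibroblasts cultured with fluconazole at 8 µg/mL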
[9] = fluconazole-exposed Candida albicans growth modulators – fluorescence, retest, confirmation (AID 2467); type: functional, cell-based
[10] = molecular target: T2, Methionyl-tRNA synthetase, putative (Trypanosoma brucei brucei, UniProt Q38C91); type: functional, Trypanosoma brucei brucei strain 927/4 GUTat10.1
T2 sequence (Q38C91 whole entry): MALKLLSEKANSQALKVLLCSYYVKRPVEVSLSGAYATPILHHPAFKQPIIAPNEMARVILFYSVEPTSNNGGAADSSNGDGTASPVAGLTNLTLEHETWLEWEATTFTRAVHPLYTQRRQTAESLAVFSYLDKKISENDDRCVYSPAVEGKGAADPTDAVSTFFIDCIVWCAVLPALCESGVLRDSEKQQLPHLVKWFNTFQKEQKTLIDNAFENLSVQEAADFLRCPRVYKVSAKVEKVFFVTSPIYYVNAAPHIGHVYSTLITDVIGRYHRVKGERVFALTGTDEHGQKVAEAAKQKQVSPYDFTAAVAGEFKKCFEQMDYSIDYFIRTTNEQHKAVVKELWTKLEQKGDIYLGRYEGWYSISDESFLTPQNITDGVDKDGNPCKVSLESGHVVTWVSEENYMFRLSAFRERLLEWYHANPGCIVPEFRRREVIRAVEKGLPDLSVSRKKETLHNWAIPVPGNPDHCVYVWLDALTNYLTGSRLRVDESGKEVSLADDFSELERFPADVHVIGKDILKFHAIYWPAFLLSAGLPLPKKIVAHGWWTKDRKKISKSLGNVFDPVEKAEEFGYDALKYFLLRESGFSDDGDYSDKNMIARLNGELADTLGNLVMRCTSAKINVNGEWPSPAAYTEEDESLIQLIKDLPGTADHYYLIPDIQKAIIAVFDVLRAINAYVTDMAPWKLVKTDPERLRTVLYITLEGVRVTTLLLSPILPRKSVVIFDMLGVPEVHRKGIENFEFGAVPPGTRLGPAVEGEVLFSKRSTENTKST

[11] = Counterscreen for inhibitors of Trypanosoma brucei methionyl tRNA synthetase (MetRS): Luminescence-based cell-based high throughput dose response assay to identify compounds that are cytotoxic to Jurkat human T lymphocyte cells.; type: functional
[12] = molecular target: T2, Methionyl-tRNA synthetase, putative; type: functional, Trypanosoma brucei brucei strain 927/4 GUTat10.1; remark: listed apart in the source
[13] = viability loss in CEM21 cells – cell-based, CellTiter-Glo luminescence, cherry-picked, cytotoxicity control for viral fusion inhibitor project, dose response (AID 652042); type: functional;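 also: potency for signal decrease meaning cytotoxicity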
[14] = blockers of HIV-1 ZM109 envelope-driven cell-cell fusion – HeLa effector, CEM target cells, luciferase, cherry-pick, dose response (AID 652058); type: functional, cell-based;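 also: luciferase signal from HIV-1 Env mediated cell-cell fusion of effector and target cells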
[15] = molecular target: Mu-type opioid receptor (Homo sapiens, UniProt P35372); type: functional, cell-based;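 also: U2OS cells with beta-arrestin recruitment to OPRM1 by beta-gal complementation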
[16] = molecular target: 5-hydroxytryptamine receptor 2A (Mus musculus, UniProt P35363); type: functional, cell-based;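 also: CHO-K1 cells with tagged receptor and beta-arrestin; agonist potency measured as compound-induced activation of the receptor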
[17] = molecular target: Galanin receptor type 3 (Homo sapiens, UniProt O60755); assay: Fluorescence-based cell-based primary high throughput dose response assay to identify antagonists of the Galanin Receptor 3 (GalR3).; type: functional
[18] = cells; type: functional, cell-based; conditions: HEK-CNG
[19] = molecular target: Matrix metalloproteinase-14 (Homo sapiens, UniProt P50281); assay: Dose Response confirmation of uHTS hits for a small molecule inhibitors of MT1-MMP activation in a fluorescence assay set 1.; type: functional

Kallikrein-7, sequence (P49862 whole entry): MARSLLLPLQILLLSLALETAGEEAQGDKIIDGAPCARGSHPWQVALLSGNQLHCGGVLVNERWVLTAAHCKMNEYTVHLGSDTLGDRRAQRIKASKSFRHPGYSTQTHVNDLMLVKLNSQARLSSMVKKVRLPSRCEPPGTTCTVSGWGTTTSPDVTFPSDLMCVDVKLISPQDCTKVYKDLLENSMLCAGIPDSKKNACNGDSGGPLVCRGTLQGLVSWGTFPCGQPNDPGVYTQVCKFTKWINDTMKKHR
Mu-type opioid receptor, sequence (P35372 whole entry): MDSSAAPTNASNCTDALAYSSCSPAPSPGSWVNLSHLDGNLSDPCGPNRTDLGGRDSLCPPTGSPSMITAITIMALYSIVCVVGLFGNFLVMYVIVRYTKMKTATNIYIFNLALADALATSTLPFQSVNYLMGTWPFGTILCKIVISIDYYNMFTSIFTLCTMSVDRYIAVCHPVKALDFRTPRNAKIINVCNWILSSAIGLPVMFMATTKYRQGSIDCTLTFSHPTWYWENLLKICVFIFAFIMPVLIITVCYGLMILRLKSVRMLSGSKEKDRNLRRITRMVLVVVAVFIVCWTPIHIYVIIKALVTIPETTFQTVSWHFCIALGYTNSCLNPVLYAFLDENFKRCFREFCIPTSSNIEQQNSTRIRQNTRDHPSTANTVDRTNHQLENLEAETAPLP
Galanin receptor type 3, sequence (O60755 whole entry): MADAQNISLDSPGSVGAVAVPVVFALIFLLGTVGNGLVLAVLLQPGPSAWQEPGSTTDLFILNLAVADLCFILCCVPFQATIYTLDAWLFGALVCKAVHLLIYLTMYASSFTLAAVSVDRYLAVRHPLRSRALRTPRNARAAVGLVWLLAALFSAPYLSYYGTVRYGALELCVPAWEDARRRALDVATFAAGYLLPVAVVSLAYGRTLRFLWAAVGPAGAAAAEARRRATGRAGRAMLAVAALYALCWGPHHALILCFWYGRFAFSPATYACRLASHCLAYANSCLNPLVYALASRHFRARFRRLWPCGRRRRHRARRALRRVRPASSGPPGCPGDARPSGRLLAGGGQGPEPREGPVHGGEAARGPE
5-hydroxytryptamine receptor 2A, sequence (P35363 whole entry): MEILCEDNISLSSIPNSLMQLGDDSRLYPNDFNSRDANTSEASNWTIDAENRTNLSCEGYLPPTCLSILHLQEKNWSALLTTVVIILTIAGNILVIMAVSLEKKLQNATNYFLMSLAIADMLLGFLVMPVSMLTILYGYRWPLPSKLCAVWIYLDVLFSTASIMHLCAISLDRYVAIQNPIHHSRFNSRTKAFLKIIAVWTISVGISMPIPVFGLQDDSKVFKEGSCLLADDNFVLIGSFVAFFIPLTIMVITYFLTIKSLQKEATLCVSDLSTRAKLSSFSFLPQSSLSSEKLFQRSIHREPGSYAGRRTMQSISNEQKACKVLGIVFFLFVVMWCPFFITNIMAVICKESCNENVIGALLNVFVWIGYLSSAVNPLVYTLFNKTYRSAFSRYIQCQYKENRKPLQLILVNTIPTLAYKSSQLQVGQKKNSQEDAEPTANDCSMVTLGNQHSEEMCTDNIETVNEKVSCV
Beta-galactosidase, sequence (Q8VNN2 whole entry): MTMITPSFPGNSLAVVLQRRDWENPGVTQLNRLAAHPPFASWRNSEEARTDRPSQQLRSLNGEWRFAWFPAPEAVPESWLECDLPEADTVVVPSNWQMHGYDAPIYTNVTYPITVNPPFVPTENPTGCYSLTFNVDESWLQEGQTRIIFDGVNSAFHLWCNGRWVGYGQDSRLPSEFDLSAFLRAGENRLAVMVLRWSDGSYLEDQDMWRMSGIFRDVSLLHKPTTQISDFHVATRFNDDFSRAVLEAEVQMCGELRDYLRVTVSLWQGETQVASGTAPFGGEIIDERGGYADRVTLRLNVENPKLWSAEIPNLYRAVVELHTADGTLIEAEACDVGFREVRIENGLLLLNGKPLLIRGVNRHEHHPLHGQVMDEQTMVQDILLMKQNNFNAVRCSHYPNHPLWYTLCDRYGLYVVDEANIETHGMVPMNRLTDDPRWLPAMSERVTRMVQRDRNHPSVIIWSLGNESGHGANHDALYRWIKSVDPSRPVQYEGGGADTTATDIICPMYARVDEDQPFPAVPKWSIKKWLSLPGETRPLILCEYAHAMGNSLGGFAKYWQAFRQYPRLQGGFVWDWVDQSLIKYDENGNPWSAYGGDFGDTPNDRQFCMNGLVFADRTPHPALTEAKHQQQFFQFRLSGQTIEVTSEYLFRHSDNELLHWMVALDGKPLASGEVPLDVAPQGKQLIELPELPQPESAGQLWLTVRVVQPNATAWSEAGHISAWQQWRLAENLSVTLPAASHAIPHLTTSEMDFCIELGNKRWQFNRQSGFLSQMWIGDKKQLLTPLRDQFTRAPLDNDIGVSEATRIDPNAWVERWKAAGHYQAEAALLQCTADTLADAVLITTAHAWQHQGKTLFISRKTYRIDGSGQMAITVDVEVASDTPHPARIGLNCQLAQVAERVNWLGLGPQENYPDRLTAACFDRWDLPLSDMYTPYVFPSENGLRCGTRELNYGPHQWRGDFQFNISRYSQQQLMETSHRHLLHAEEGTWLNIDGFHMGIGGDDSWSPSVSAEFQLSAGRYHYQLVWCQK

SMILES: COc1ccc(N(CC(=O)NCCSCc2ccc(C)cc2)S(=O)(=O)c2ccccc2)cc1
AC50 [1]: > 52 µM (inactive)

IC50 [2]: > 80 µM (inactive)
SMILES: CCOC(=O)N1CCN(C(=O)COc2ccc(Br)cc2)CC1

EC50 [3]: 2.56 µM (active)
SMILES: COc1ccc(/C=C(/CC(=O)NCc2ccc(Cl)cc2)c2nc3ccccc3s2)cc1

SMILES: Cc1cc(C)c(C#N)c(SCC(=O)c2cc(C)n(CCc3ccccc3)c2C)n1
IC50 [4]: > 29.9 µM (inactive)
EC50 [5]: 1.15 µM (active)
IC50 [6]: 4.68 µM (active)
EC50 [7]: > 29.9 µM (inactive)

SMILES: Cc1ccc(SCCC(=O)N/N=C/c2ccccc2O)cc1
EC50 [8]: > 160 µM (inactive)
EC50 [9]: 4.74 µM (active)
IC50 [10]: 4.39 µM (active)
IC50 [11]: 16.1 µM (inactive)
IC50 [12]: 4.49 µM (active)

SMILES: COc1cccc(-c2ccc3c(c2)[C@H]2[C@H](CCN2C(=O)Cc2ccncc2)[C@H](CO)N3C)c1
AC50 [1]: > 52 µM (inactive)

EC50 [3]: > 69.6 µM (inactive)
SMILES: N#Cc1ccc2c(c1)nc1ccccn12

SMILES: CC1(C)N=C(N)N=C(N)N1CCCCc1ccccc1
AC50 [13]: 1.63 µM (active)
AC50 [14]: 1.34 µM (active)

EC50 [15]: 92.5 µM (inactive)
EC50 [16]: 0.281 µM (active)
SMILES: CC1CC(C)CN(CCOc2cccc(Cl)c2Cl)C1 (stereo unspecified)

SMILES: Cc1ccc(CCNc2ncnc(Cl)c2N)cc1
IC50 [17]: 0.626 µM (active)
EC50 [18]: > 29.9 µM (inactive)

IC50 [19]: > 80 µM (inactive)
SMILES: CN1C(=O)/C(=C2/C=Cc3ccccc3N2CCCS(=O)(=O)O)SC1=S
